Assay results reported in patent US6603046B1, “Bis-aromatic a,β-unsaturated ketones” (Lica Pharmaceuticals A/S, priority 1992, dated 2003).
Several values for one entry are separate records, joined by “and”; a condition that tells them apart may be missing. Identical values can stand only once.

What was measured:
L. major in U937 cells = test: Intracellular parasite killing, parasite survival index (PSI); assay type: cell-based, Leishmania major; conditions: 1 μg/ml
Method: Killing was quantified by a modification of a technique described by Berman et al.
Briefly, 3 days after infection, microtiter well cultures were rinsed once with medium, exposed to 100 μl of prewarmed (37° C.) 0.01% sodium dodecyl-sulfate (SDS) in medium RPMI 1640, and returned to 34° C. for 15 min. By this procedure, macrophages were lysed, according to microscopic observation, and amastigotes were released. 100 μl of medium RPMI 1640 with 20% HFCS were added to each well without removal of the lysing solution. The plates were then transferred to a 26° C. incubator, and amastigotes were left to transform to promastigotes. After 48 h, parasite growth was recorded by adding 1 μCi of ^3H-thymidine (New England Nuclear Corp., Boston, Mass.) to each well. The parasites were harvested 24 h later on glass fiber filters with a harvesting machine (Skatron, Lierbyen, Norway), and ^3H-thymidine incorporation was measured in a liquid scintillation counter (Tricarb; Packard Instrument Co., Inc., Rockville, Md.). The parasite survival index (PSI) was determined. This index is the mean 3H-thymidine incorporation (cpm) in treated infected cells as compared with the untreated infected cells. [formula]

P. yoelii strain YM = P. yoelii strain YM infection in mice, parasitemia and mortality (Example 16); assay type: in vivo, BALB/c mice; conditions: for % parasitemia, Mean: orally 100 mg/kg/dose 3 and 24 h after infection
[1] = D + 2, 10 mg per kg twice daily days +1 to +4
[2] = D + 3, 10 mg per kg twice daily days +1 to +4
[3] = D + 4, 10 mg per kg twice daily days +1 to +4
[4] = D + 5, 10 mg per kg twice daily days +1 to +4
[5] = D + 6, 10 mg per kg twice daily days +1 to +4
[6] = D + 7, 10 mg per kg twice daily days +1 to +4
[7] = D + 8, 10 mg per kg twice daily days +1 to +4
[8] = D + 9, 10 mg per kg twice daily days +1 to +4

C=CC(C)(C)c1cc(/C=C/C(=O)c2ccc(O)cc2)c(OC)cc1O [Licochalcone A, licochalcone A]
PSI index (L. major in U937 cells): about 5% | Parasitemia, mean (P. yoelii strain YM; [1]): 0.1% | Parasitemia, single mice (P. yoelii strain YM; [1]): 0.1% and 0.01% | Parasitemia, mean (P. yoelii strain YM; [2]): 0.2% | Parasitemia, single mice (P. yoelii strain YM; [2]): 0.00% and 0.5% and 0.01% | Parasitemia, mean (P. yoelii strain YM; [3]): 0.4% | Parasitemia, single mice (P. yoelii strain YM; [3]): 0.00% and 1.2% | Parasitemia, single mice (P. yoelii strain YM; D + 4, 10 mg/kg/day in 2 injections, days +1 to +6, 10 mg/kg/day): 1.5% and 4.0% | Parasitemia, single mice (P. yoelii strain YM; D + 4, 20 mg/kg/day in 2 injections, days +1 to +6, 20 mg/kg/day): 0.01% and 0.0% | Parasitemia, single mice (P. yoelii strain YM; D + 4, 40 mg/kg/day in 2 injections, days +1 to +6, 40 mg/kg/day): 0.1% and 0.5% | % parasitemia (mean ± SEM) (P. yoelii strain YM; D + 4, i.p. 5 mg/kg/day twice daily, 3 h after infection and D + 1 to D + 3): 1.6 ± 0.6% | % parasitemia (mean ± SEM) (P. yoelii strain YM; D + 4, i.p. 10 mg/kg four times daily D + 4 to D + 7): 14.2 ± 3.8% | % parasitemia (mean ± SEM) (P. yoelii strain YM; D + 4, i.p. 10 mg/kg twice daily D-1, D0): 1.2 ± 1.1% | % parasitemia (mean ± SEM) (P. yoelii strain YM; D + 4, i.p. 10 mg/kg/day twice daily, 3 h after infection and D + 1 to D + 3): 1.1 ± 1.0% | % parasitemia (mean ± SEM) (P. yoelii strain YM; D + 4, i.p. 15 mg/kg/day twice daily, 3 h after infection and D + 1 to D + 3): 2.0 ± 2.0% | % parasitemia, Mean (P. yoelii strain YM; D + 4): 1.0% | Parasitemia, mean (P. yoelii strain YM; [4]): 0.7% | Parasitemia, single mice (P. yoelii strain YM; [4]): 0.1% and 1.5% and 0.00% | Parasitemia, single mice (P. yoelii strain YM; D + 5, 10 mg/kg/day in 2 injections, days +1 to +6, 10 mg/kg/day): 1.5% and 3.0% | Parasitemia, single mice (P. yoelii strain YM; D + 5, 20 mg/kg/day in 2 injections, days +1 to +6): 0.0% | Parasitemia, single mice (P. yoelii strain YM; D + 5, 40 mg/kg/day in 2 injections, days +1 to +6, 40 mg/kg/day): 0.5% and 1.0% | Parasitemia, mean (P. yoelii strain YM; [5]): 2.2% | Parasitemia, single mice (P. yoelii strain YM; [5]): 1.0% and 4.0% and 1.5% | Parasitemia, single mice (P. yoelii strain YM; D + 6, 10 mg/kg/day in 2 injections, days +1 to +6, 10 mg/kg/day): 2.0% and 2.5% | % parasitemia (mean ± SEM) (P. yoelii strain YM; D + 6, 10 mg/kg/day twice daily, 3 h after infection, D + 1 to D + 5): 0.1 ± 0.1% | % parasitemia (mean ± SEM) (P. yoelii strain YM; D + 6, 15 mg/kg/day twice daily, 3 h after infection, D + 1 to D + 5): 0% | Parasitemia, single mice (P. yoelii strain YM; D + 6, 20 mg/kg/day in 2 injections, days +1 to +6): 0.0% | Parasitemia, single mice (P. yoelii strain YM; D + 6, 40 mg/kg/day in 2 injections, days +1 to +6, 40 mg/kg/day): 1.0% and 1.5% | % parasitemia (mean ± SEM) (P. yoelii strain YM; D + 6, i.p. 5 mg/kg/day twice daily, 3 h after infection and D + 1 to D + 3): 13.8 ± 4.4% | % parasitemia (mean ± SEM) (P. yoelii strain YM; D + 6, i.p. 10 mg/kg four times daily D + 4 to D + 7): 6.6 ± 1.5% | % parasitemia (mean ± SEM) (P. yoelii strain YM; D + 6, i.p. 10 mg/kg twice daily D-1, D0): 9.7 ± 0.7% | % parasitemia (mean ± SEM) (P. yoelii strain YM; D + 6, i.p. 10 mg/kg/day twice daily, 3 h after infection and D + 1 to D + 3): 14.2 ± 4.6% | % parasitemia (mean ± SEM) (P. yoelii strain YM; D + 6, i.p. 15 mg/kg/day twice daily, 3 h after infection and D + 1 to D + 3): 10.4 ± 7.4% | Parasitemia, mean (P. yoelii strain YM; [6]): 3.0% | Parasitemia, single mice (P. yoelii strain YM; [6]): 2.0% and 4.0% and 3.0% | Parasitemia, single mice (P. yoelii strain YM; D + 7, 10 mg/kg/day in 2 injections, days +1 to +6, 10 mg/kg/day): 8.0% and 10.0% | Parasitemia, single mice (P. yoelii strain YM; D + 7, 20 mg/kg/day in 2 injections, days +1 to +6, 20 mg/kg/day): 0.01% and 0.05% | Parasitemia, single mice (P. yoelii strain YM; D + 7, 40 mg/kg/day in 2 injections, days +1 to +6, 40 mg/kg/day): 4.5% and 5.8% | % parasitemia, Mean (P. yoelii strain YM; D + 7): 9.7% | Parasitemia, mean (P. yoelii strain YM; [7]): 6.7% | Parasitemia, single mice (P. yoelii strain YM; [7]): 4.0% and 8.0% | Parasitemia, single mice (P. yoelii strain YM; D + 8, 10 mg/kg/day in 2 injections, days +1 to +6, 10 mg/kg/day): 18.0% and 20.0% | % parasitemia (mean ± SEM) (P. yoelii strain YM; D + 8, 10 mg/kg/day twice daily, 3 h after infection, D + 1 to D + 5): 0.7 ± 0.4% | % parasitemia (mean ± SEM) (P. yoelii strain YM; D + 8, 15 mg/kg/day twice daily, 3 h after infection, D + 1 to D + 5): 0% | Parasitemia, single mice (P. yoelii strain YM; D + 8, 20 mg/kg/day in 2 injections, days +1 to +6, 20 mg/kg/day): 1.0% and 1.5% | Parasitemia, single mice (P. yoelii strain YM; D + 8, 40 mg/kg/day in 2 injections, days +1 to +6, 40 mg/kg/day): 12.0% and 15.0% | % parasitemia (mean ± SEM) (P. yoelii strain YM; D + 8, i.p. 5 mg/kg/day twice daily, 3 h after infection and D + 1 to D + 3): 36.6 ± 5.7% | % parasitemia (mean ± SEM) (P. yoelii strain YM; D + 8, i.p. 10 mg/kg four times daily D + 4 to D + 7): 17 ± 6.2% | % parasitemia (mean ± SEM) (P. yoelii strain YM; D + 8, i.p. 10 mg/kg twice daily D-1, D0): 27.8 ± 16.1% | % parasitemia (mean ± SEM) (P. yoelii strain YM; D + 8, i.p. 10 mg/kg/day twice daily, 3 h after infection and D + 1 to D + 3): 30.2 ± 6.4% | % parasitemia (mean ± SEM) (P. yoelii strain YM; D + 8, i.p. 15 mg/kg/day twice daily, 3 h after infection and D + 1 to D + 3): 22 ± 11.6% | Parasitemia, mean (P. yoelii strain YM; [8]): 23.0% | Parasitemia, single mice (P. yoelii strain YM; [8]): 20.0% and 18.0% and 31.0% | Parasitemia, mean (P. yoelii strain YM; D + 10, 10 mg per kg twice daily days +1 to +4): 25.5% | Parasitemia, single mice (P. yoelii strain YM; D + 10, 10 mg/kg/day in 2 injections, days +1 to +6, 10 mg/kg/day): 39.0% and 42.0% | % parasitemia (mean ± SEM) (P. yoelii strain YM; D + 10, 10 mg/kg/day twice daily, 3 h after infection, D + 1 to D + 5): 6.0 ± 3.8% | % parasitemia (mean ± SEM) (P. yoelii strain YM; D + 10, 15 mg/kg/day twice daily, 3 h after infection, D + 1 to D + 5): 0% | Parasitemia, single mice (P. yoelii strain YM; D + 10, 20 mg/kg/day in 2 injections, days +1 to +6, 20 mg/kg/day): 5.0% and 8.0% | Parasitemia, single mice (P. yoelii strain YM; D + 10, 40 mg/kg/day in 2 injections, days +1 to +6, 40 mg/kg/day): 32.0% and 38.0% | mortality (no. of dead mice/total no. of tested mice) (P. yoelii strain YM; D + 10, i.p. 5 mg/kg/day twice daily to D + 3): (2/5) | % parasitemia (mean ± SEM) (P. yoelii strain YM; D + 10, i.p. 5 mg/kg/day twice daily, 3 h after infection and D + 1 to D + 3): 64 ± 5.0% | % parasitemia (mean ± SEM) (P. yoelii strain YM; D + 10, i.p. 10 mg/kg four times daily D + 4 to D + 7): 27.6 ± 12.1% | % parasitemia (mean ± SEM) (P. yoelii strain YM; D + 10, i.p. 10 mg/kg twice daily D-1, D0): 47.4 ± 27.7% | mortality (no. of dead mice/total no. of tested mice) (P. yoelii strain YM; D + 10, i.p. 10 mg/kg/day twice daily to D + 3): (1/5) | % parasitemia (mean ± SEM) (P. yoelii strain YM; D + 10, i.p. 10 mg/kg/day twice daily, 3 h after infection and D + 1 to D + 3): 48 ± 5.4% | mortality (no. of dead mice/total no. of tested mice) (P. yoelii strain YM; D + 10, i.p. 15 mg/kg/day twice daily to D + 3): (1/5) | % parasitemia (mean ± SEM) (P. yoelii strain YM; D + 10, i.p. 15 mg/kg/day twice daily, 3 h after infection and D + 1 to D + 3): 22 ± 11.6% | % parasitemia, Mean (P. yoelii strain YM; D + 10): 43%
